# Assay results from publication PMC3253737 (Journal of Natural Products, 2011).
# Like-named read-outs stand apart in the source and are kept apart here.
# Legend:
# [1] = MTS viability; type: cell-based; conditions: human (JMAR, MDA-1986, SKMEL-28, MRC-5) and mouse (B16F10)
# [2] = test system: HNSCC (JMAR and MDA-1986), melanoma (B16F10 and SKMEL-28), and normal fetal fibroblast (MRC-5) cells; experiment: MTS viability; type: cell-based
# [3] = Cytotoxicity IC50 (inactive for all cell lines used), all cell lines used (B16F10, SKMEL-28, JMAR, MDA-1986, MRC-5)
SMILES,IC50 ([1]; cytotoxicity IC50),"IC50 [1, 3]",also measured
"CC1=C(CO)C(=O)O[C@@H]([C@@H](C)[C@H]2CC[C@H]3[C@@H]4C[C@H]5O[C@]56[C@@H](O)C=CC(=O)[C@]6(CO)[C@H]4CC[C@]23C)C1 [Compound 1, 19-hydroxywithaferin A]",,,IC50 [1]: 0.067 to 9.3 µM
"CC1=C(C)C(=O)O[C@@H]([C@@H](C)[C@H]2CC[C@H]3[C@@H]4C[C@H]5O[C@]56[C@@H](O)C=CC(=O)[C@]6(CO)[C@H]4CC[C@]23C)C1 [Compound 2, 27-deoxy-19-hydroxywithaferin A]",0.067 to 9.3 µM,,
"CC1=C(CO)C(=O)O[C@@H]([C@@H](C)[C@H]2CC[C@H]3[C@@H]4CC=C5C=CC(=O)[C@]5(C)[C@H]4CC[C@]23C)C1 [Compound 6, A-nor-27-hydroxy-1-oxowitha-2,5,24-trienolide]",,,IC50 [1]: > 10 µM
"CC1=C(CO)C(=O)O[C@@H]([C@@H](C)[C@H]2CC[C@H]3[C@@H]4C[C@H]5O[C@]56[C@@H](O)[C@@H](OS(=O)(=O)O)CC(=O)[C@]6(CO)[C@H]4CC[C@]23C)C1 [Compound 7, 2,3-dihydro-19-hydroxy-3β-O-sulfate-withaferin A]",0.067 to 9.3 µM,,
"CC1=C(CO[C@@H]2O[C@H](CO)[C@@H](O[C@@H]3O[C@@H](C)[C@H](O)[C@@H](O)[C@H]3O)[C@H](O)[C@H]2O)C(=O)O[C@@H]([C@@H](C)[C@H]2CC[C@H]3[C@@H]4C[C@H]5O[C@]56[C@@H](O)C=CC(=O)[C@]6(C)[C@H]4CC[C@]23C)C1 [Compound 8, 27-O-[α-L-rhamnopyranosyl(1→4)]-β-D-glucopyranosyl-withaferin A]",0.067 to 9.3 µM,,cytotoxicity relative to the aglycone withaferin A (16) [2]: less cytotoxicity
"CC1=C(CO[C@@H]2O[C@H](CO)[C@@H](O)[C@H](O)[C@H]2O)C(=O)O[C@@H]([C@@H](C)[C@H]2CC[C@H]3[C@@H]4C[C@H]5O[C@]56[C@@H](O)C=CC(=O)[C@]6(C)[C@H]4CC[C@]23C)C1 [Compound 15, 27-O-β-D-glucopyranosyl-withaferin A]",,,"cytotoxicity relative to the aglycone withaferin A (16) ([2]; MTS assay, comparison in words): less cytotoxicity"
"CO[C@H]1CC(=O)[C@]2(C)[C@H]3CC[C@]4(C)[C@@H]([C@H](C)[C@H]5CC(C)=C(CO)C(=O)O5)CC[C@H]4[C@@H]3C[C@H]3O[C@]32[C@H]1O [Compound 17, 2,3-dihydro-3β-methoxywithaferin A]",,,IC50 ([1]; Cytotoxicity IC50 (inactive for all cell lines used)): > 10 µM
"CC1=C(CO)C(=O)O[C@@H]([C@@H](C)[C@H]2CC[C@H]3[C@@H]4C[C@H]5O[C@]56[C@@H](O)[C@@H](O)CC(=O)[C@]6(C)[C@H]4CC[C@]23C)C1 [Compound 18, viscosalactone B]",,> 10 µM,
"CC1=C(CO)C(=O)O[C@@H]([C@@H](C)[C@H]2CC[C@H]3[C@@H]4C[C@H]5O[C@]56[C@@H](O)CCC(=O)[C@]6(C)[C@H]4CC[C@]23C)C1 [Compound 20, 2,3-dihydrowithaferin A]",,> 10 µM,
"CC1=C(CO)C(=O)O[C@@H]([C@@H](C)[C@H]2CC[C@H]3[C@@H]4C[C@@H]5O[C@@H]6CC(=O)[C@](C)([C@H]4CC[C@]23C)[C@@]5(O)[C@H]6O)C1 [Compound 21, 3α,6α-epoxy-4β,5β,27-trihydroxy-1-oxowitha-24-enolide]",,> 10 µM,
